Data reported in ChEMBL document CHEMBL1667805, “Synthesis of new C5-(1-substituted-1,2,3-triazol-4 or 5-yl)-2'-deoxyuridines and their antiviral evaluation” (Eur J Med Chem, 2011).
pEC50, pIC50: −log10 of the molar value. Active and inactive are the calls of the source. No cut-off for these calls is given here.

Tests used:
[1] = in vitro; details: human, HEL cells
[2] = system: Human alphaherpesvirus 1; experiment: microbe, parasite or virus in culture; details: Human alphaherpesvirus 1, KOS, HEL
[3] = system: Human alphaherpesvirus 1; experiment: microbe, parasite or virus in culture; details: Human alphaherpesvirus 1, KOS, HEL; remark: listed apart in the source
[4] = system: Human alphaherpesvirus 2; experiment: microbe, parasite or virus in culture; details: Human alphaherpesvirus 2, strain G, HEL
[5] = system: Human betaherpesvirus 5; experiment: microbe, parasite or virus in culture; details: Human betaherpesvirus 5, AD169, HEL
[6] = system: Human betaherpesvirus 5; experiment: microbe, parasite or virus in culture; details: Human betaherpesvirus 5, Davis, HEL
[7] = system: Vaccinia virus; experiment: microbe, parasite or virus in culture; details: Orthopoxvirus vaccinia, HEL
[8] = system: Mammalian orthoreovirus 1; type: functional, organism-based; details: Vero
[9] = system: Sindbis virus; type: functional, organism-based; details: Vero
[10] = system: Punta Toro virus; type: functional, organism-based; details: Vero
[11] = system: Coxsackievirus B4; type: functional, organism-based; details: HeLa
[12] = system: Vesicular stomatitis virus; type: functional, organism-based; details: HeLa
[13] = system: Human immunodeficiency virus 1; experiment: Antiviral activity against HIV1 3B infected in human […] cells assessed as virus-induced CEM giant cell formation after 4 days; type: functional, organism-based
[14] = system: Human immunodeficiency virus 2; experiment: Antiviral activity against HIV2 ROD infected in human […] cells assessed as virus-induced CEM giant cell formation after 4 days; type: functional, organism-based; details: ISOLATE ROD
[15] = system: Vesicular stomatitis virus; type: functional, organism-based; details: MDCK
[16] = system: Influenza A virus; type: functional, organism-based; details: H1N1, MDCK
[17] = system: Influenza A virus; type: functional, organism-based; details: H3N2, MDCK
[18] = system: Influenza B virus; type: functional, organism-based; details: MDCK
[19] = system: Human respirovirus 3; type: functional, organism-based; details: Vero
[20] = system: L1210; experiment: cells; details: Mus musculus, L1210, 48 h
[21] = system: CCRF-CEM; experiment: cells; details: Homo sapiens, 72 h
[22] = system: HeLa; experiment: cells; details: Homo sapiens, 96 h
[23] = system: Human alphaherpesvirus 3; experiment: microbe, parasite or virus in culture; details: Human alphaherpesvirus 3, strain Oka vaccine, HEL
[24] = system: Human alphaherpesvirus 3; experiment: microbe, parasite or virus in culture; details: Human alphaherpesvirus 3, 07-1, HEL

SMILES: NC(=O)c1ncn([C@@H]2O[C@H](CO)[C@@H](O)[C@H]2O)n1 [RIBAVIRIN]
- CC50 at 72 h [1]: > 250 µM
- MCC at 72 h [1]: > 250 µM
- pEC50 [2]: < 3.60
- pEC50 [3]: < 3.60
- pEC50 [4]: < 3.60
- pEC50 [5]: < 4.00
- pEC50 [6]: < 4.00
- pEC50 [7]: < 3.60

SMILES: CSc1ccc(-n2cc(-c3cn([C@H]4C[C@H](O)[C@@H](CO)O4)c(=O)[nH]c3=O)nn2)cc1
- inhibition [8]: inactive
- inhibition [9]: inactive
- inhibition [10]: inactive
- inhibition [11]: inactive
- inhibition [12]: inactive
- inhibition [13]: inactive
- inhibition [14]: inactive
- inhibition [15]: inactive
- inhibition [16]: inactive
- inhibition [17]: inactive
- inhibition [18]: inactive
- inhibition [19]: inactive
- pIC50 [20]: 4.21
- pIC50 [21]: 4.30
- pIC50 [22]: 4.64
- CC50 at 72 h [1]: 27 µM
- MCC at 72 h [1]: > 230 µM
- pEC50 [2]: < 4.30
- pEC50 [3]: < 4.30
- pEC50 [4]: < 4.30
- pEC50 [23]: 4.57
- pEC50 [24]: < 4.30
- pEC50 [5]: < 4.30
- pEC50 [6]: < 4.30
- pEC50 [7]: < 4.30

SMILES: O=c1[nH]cc(F)c(=O)[nH]1 [FLUOROURACIL]
- pIC50 [20]: 6.25
- pIC50 [21]: 4.85
- pIC50 [22]: 6.24

SMILES: O=c1[nH]c(=O)n([C@H]2C[C@H](O)[C@@H](CO)O2)cc1-c1cnnn1-c1c(F)cccc1F
- pIC50 [20]: 5.00
- pIC50 [21]: 4.92
- pIC50 [22]: 5.30
- MCC at 72 h [1]: > 100 µM
- pEC50 [2]: < 4.00
- pEC50 [3]: < 4.00
- pEC50 [4]: < 4.00
- pEC50 [7]: < 4.00

SMILES: O=c1[nH]c(=O)n([C@H]2C[C@H](O)[C@@H](CO)O2)cc1/C=C/Br [BRIVUDINE]
- CC50 at 72 h [1]: > 250 µM
- MCC at 72 h [1]: > 250 µM
- pEC50 [3]: 5.22
- pEC50 [4]: 3.74
- pEC50 [24]: 4.26

SMILES: O=c1[nH]c(=O)n([C@H]2C[C@H](O)[C@@H](CO)O2)cc1-c1cnnn1-c1ccc(Oc2ccccc2)cc1
- pIC50 [20]: 3.87
- pIC50 [21]: 3.97
- pIC50 [22]: 4.38
- MCC at 72 h [1]: > 100 µM
- pEC50 [2]: < 4.00
- pEC50 [3]: < 4.00
- pEC50 [4]: < 4.00
- pEC50 [7]: < 4.00

SMILES: CC(C)c1ccc(-n2nncc2-c2cn([C@H]3C[C@H](O)[C@@H](CO)O3)c(=O)[nH]c2=O)cc1
- pIC50 [20]: < 3.70
- pIC50 [21]: < 3.70
- pIC50 [22]: < 3.70
- MCC at 72 h [1]: > 100 µM
- pEC50 [2]: < 4.00
- pEC50 [3]: < 4.00
- pEC50 [4]: < 4.00
- pEC50 [7]: < 4.00

SMILES: Nc1nc2c(ncn2COCCO)c(=O)[nH]1 [ACYCLOVIR]
- CC50 at 72 h [1]: > 130 µM
- MCC at 72 h [1]: > 50 µM
- pEC50 [3]: 5.00
- pEC50 [24]: 4.78
- pEC50 [7]: < 3.60

SMILES: O=c1[nH]c(=O)n([C@H]2C[C@H](O)[C@@H](CO)O2)cc1-c1cn(-c2cc(F)cc(F)c2)nn1
- inhibition [8]: inactive
- inhibition [9]: inactive
- inhibition [10]: inactive
- inhibition [11]: inactive
- inhibition [12]: inactive
- inhibition [13]: inactive
- inhibition [14]: inactive
- inhibition [15]: inactive
- inhibition [16]: inactive
- inhibition [17]: inactive
- inhibition [18]: inactive
- inhibition [19]: inactive
- CC50 at 72 h [1]: 36 µM
- MCC at 72 h [1]: 220 µM
- pEC50 [2]: < 3.66
- pEC50 [3]: < 3.66
- pEC50 [4]: < 3.66
- pEC50 [23]: < 4.30
- pEC50 [24]: < 4.30
- pEC50 [5]: < 4.30
- pEC50 [6]: < 4.30
- pEC50 [7]: < 3.66

SMILES: Nc1nc2c(ncn2COC(CO)CO)c(=O)[nH]1 [GANCICLOVIR]
- CC50 at 72 h [1]: > 250 µM
- MCC at 72 h [1]: > 250 µM
- pEC50 [3]: 7.00
- pEC50 [4]: 7.40
- pEC50 [7]: < 4.00

SMILES: Nc1ccn(C[C@@H](CO)OCP(=O)(O)O)c(=O)n1 [CIDOFOVIR]
- CC50 at 72 h [1]: > 250 µM
- MCC at 72 h [1]: > 250 µM
- pEC50 [2]: 6.10
- pEC50 [3]: 6.10
- pEC50 [4]: 5.85
- pEC50 [6]: 6.40

SMILES: O=c1[nH]c(=O)n([C@H]2C[C@H](O)[C@@H](CO)O2)cc1-c1cnnn1-c1ccc(Br)cc1
- pIC50 [20]: 4.21
- pIC50 [21]: 4.33
- pIC50 [22]: 5.10
- MCC at 72 h [1]: > 100 µM
- pEC50 [2]: < 4.00
- pEC50 [3]: < 4.00
- pEC50 [4]: < 4.00
- pEC50 [7]: < 4.00
